Key:
Assay type in all cases: in vivo
winter wheat = test: Foliar trehalose on yield of winter wheat; settings: 100 g/a Foliar, 4 weeks before harvest; control 0%; highly significant
Description: Wheat, grown in Ontario Canada, was treated foliarly with an aqueous solution of trehalose at the rate of 100 grams per acre, 4 weeks before harvest.

Potato, cultivar Eva = test: Yield of Eva potato treated foliarly with trehalose 4 weeks before harvest; settings: for pounds per graded size #4 (>10 ounces): control 0.0; for pounds per graded size #1 (0 to 4 ounces): control 0.8; for pounds per graded size #2 (>4 ounces) / pounds per graded size #3 (>6 ounces): control 6.8; for pounds Total: control 14.4
Sugar Cane = test: Trehalose on sugar per acre from sugar cane; settings: 4 weeks before harvest
Description: Sugar Cane, grown in southern Texas was treated 4 weeks before harvest with an aqueous solution of Trehalose at the rate of 450 grams per acre, gave an extra 897 pounds of sugar from sugar cane production.

Sugar Beets = test: Foliar trehalose on sugar beet yield and quality
Text: Sugar Beets were foliarly treated with Trehalose at the rate of 300 grams per acre in Yuma Colo.

[1] = tested on: Field Corn, cultivar Asgrow 7371; test: Foliar trehalose on field corn yield, cultivar Asgrow 7371; settings: trehalose 100 grams per acre foliar, 4 and 5 weeks after V16 stage
Text: Field Corn, cultivar Asgrow 7371, was twice treated foliarly before harvest with an aqueous solution of trehalose at the rate of 100 grams of trehalose per acre, at 4 weeks after the V16 stage of growth, and once again foliarly at the same rate at 5 weeks after the V16 stage of growth.

[2] = tested on: Potatoes, cultivar Snowden; test: Reducing sugar content of potato tubers after foliar trehalose, cultivar Snowden; settings: 4 or 2 weeks before harvest, inversely proportional to the dose of trehalose
Description: Potatoes, cultivar Snowden in Wisconsin, were treated either 4 or 2 weeks before harvest with a foliar application of trehalose at the rate of 100 grams per acre. The potatoes were harvested and shipped to College Station, Tex. for analysis of reducing sugars.

Potatoes, cultivar Eva = test: Reducing sugar content of potato tubers after foliar trehalose, cultivar Eva; settings: for Reducing Sugar Content of Tubers (absorbance at 570 nm): 100 grams/acre foliar, n = 16
Description: Potatoes, cultivar Eva in Pennsylvania, were treated either 4 or 2 weeks before harvest with a foliar application of trehalose at the rate of 100 grams per acre. The potatoes were harvested and shipped to College Station, Texas for analysis of reducing sugars. […] (Table 4).

[3] = tested on: Field corn, Cultivar Dekalb C6805; test: Foliar trehalose on field corn yield, cultivar Dekalb C6805; settings: for Yield of field corn (bushels per acre): control 155; for Weight of 1,000 kernels (grams): control 261
Description: Field corn, Cultivar Dekalb C6805, was treated foliarly with an aqueous solution of trehalose at the rate of 100 grams per acre, either at the […] stage of growth or 3 weeks before the […] stage of growth, in southern Texas. Field corn yields were increased with this cultivar from 155 bushels per acre to an unprecedented 337 bushels per acre for this locale, characterized by hot, windy climate and poor soils and high levels of pests including disease and insects. Seed weights of the corn kernels were increased.

[4] = 100 grams per acre foliar at the V16 stage of growth
[5] = 100 grams per acre foliar, 3 wk prior to V16 growth stage

OC[C@H]1O[C@H](O[C@H]2O[C@H](CO)[C@@H](O)[C@H](O)[C@H]2O)[C@H](O)[C@@H](O)[C@@H]1O [Trehalose, trehalose]
increase in yield of winter wheat (winter wheat): 9.5%, highly significant
Potato yield (Potato, cultivar Eva; 100 grams per acre foliar): increased yields
pounds per graded size #4 (>10 ounces) (Potato, cultivar Eva; Trehalose 25 g foliar): 0.0 pounds
pounds per graded size #1 (0 to 4 ounces) (Potato, cultivar Eva; Trehalose 25 g foliar): 1.1 pounds
pounds per graded size #2 (>4 ounces) (Potato, cultivar Eva; Trehalose 25 g foliar): 7.2 pounds
pounds per graded size #3 (>6 ounces) (Potato, cultivar Eva; Trehalose 25 g foliar): 8.6 pounds
pounds Total (Potato, cultivar Eva; Trehalose 25 g foliar): 16.9 pounds
pounds per graded size #4 (>10 ounces) (Potato, cultivar Eva; Trehalose 50 g foliar): 0.0 pounds
pounds per graded size #1 (0 to 4 ounces) (Potato, cultivar Eva; Trehalose 50 g foliar): 0.9 pounds
pounds per graded size #2 (>4 ounces) (Potato, cultivar Eva; Trehalose 50 g foliar): 7.0 pounds
pounds per graded size #3 (>6 ounces) (Potato, cultivar Eva; Trehalose 50 g foliar): 8.3 pounds
pounds Total (Potato, cultivar Eva; Trehalose 50 g foliar): 16.2 pounds
pounds per graded size #4 (>10 ounces) (Potato, cultivar Eva; Trehalose 100 g foliar): 0.4 pounds
pounds per graded size #1 (0 to 4 ounces) (Potato, cultivar Eva; Trehalose 100 g foliar): 0.8 pounds
pounds per graded size #2 (>4 ounces) (Potato, cultivar Eva; Trehalose 100 g foliar): 7.4 pounds
pounds per graded size #3 (>6 ounces) (Potato, cultivar Eva; Trehalose 100 g foliar): 8.4 pounds
pounds Total (Potato, cultivar Eva; Trehalose 100 g foliar): 17.0 pounds
increase in lb of sugar per acre from sugar cane (Sugar Cane; 450 g/a Foliar, control 0): 897 lb
extra sugar from sugar cane production (Sugar Cane; 450 grams per acre): 897 pounds
Percent SLM (Sugar Beets; 300 g/a Foliar, 2 weeks before harvest, control 1.85): 1.22%
Percent Sugar (Sugar Beets; 300 g/a Foliar, 2 weeks before harvest, control 15.83%): 17.23%
Sugar Beet yield (tons per acre) (Sugar Beets; 300 g/a Foliar, 2 weeks before harvest, control 27.79): 28.4 tons per acre
Pounds of Sugar per acre (Sugar Beets; 300 g/a Foliar, 2 weeks before harvest, control 8797): 9770 Pounds of Sugar per acre
Extra sugar per acre transferred to the beets (Sugar Beets; 300 grams per acre foliar): nearly half an extra ton of sugar per acre
% SLM (Sugar Beets; 300 grams per acre, 2 weeks before harvest): decided reduction
Yield increase by treatment of trehalose [1]: up to 125%
Yield of field corn (bushels per acre) ([1]; Cultivar 7371, control 103 bu/acre): 231 bu/acre
Weight of 1,000 kernels (grams) ([1]; Cultivar 7371, control 288 grams): 368 grams
Reducing sugar content of potato tubers [2]: decrease in reducing sugar content
Reducing sugars in the potato tubers (Potatoes, cultivar Eva; 100 grams per acre foliar, 4 weeks before harvest): decreased
Reducing Sugar Content of Tubers (absorbance at 570 nm) (Potatoes, cultivar Eva; 2 weeks before Harvest, control 0.200 ± 0.08): 0.211 ± 0.12 absorbance at 570 nm
Reducing Sugar Content of Tubers (absorbance at 570 nm) (Potatoes, cultivar Eva; 4 weeks before Harvest, control 0.217 ± 0.15): 0.125 ± 0.03 absorbance at 570 nm
Seed weights of the corn kernels ([3]; 100 grams per acre foliar): increased
Yield of field corn (bushels per acre) [3, 4]: 311 bushels per acre
Weight of 1,000 kernels (grams) [3, 4]: 286 grams
Yield of field corn (bushels per acre) [3, 5]: 327 bushels per acre
Weight of 1,000 kernels (grams) [3, 5]: 294 grams
Field corn yield ([3]; 100 grams per acre foliar, V16 or 3 weeks before V16, increased from 155): 337 bushels per acre

From patent US20140287923A1, “METHOD FOR ENHANCING CROP YIELDS BY APPLICATION OF TREHALOSE” (Stoller Enterprises, Inc., priority 2012, published 2014)
